CC(=O)N[C@@H](CCC(N)=O)C(=O)O
solubility (mole fraction)
Conditions	283.15 K	288.15 K	293.15 K	298.15 K	303.15 K	308.15 K	313.15 K	318.15 K	323.15 K
in 2-butanone	0.000381	0.000395	0.000425	0.000451	0.000479	0.000516	0.000564	0.000606	0.000658
in acetone	0.00016	0.000192	0.000232	0.000275	0.000312	0.000342	0.000389	0.000422	0.000475
in acetonitrile	0.000116	0.000128	0.000139	0.000152	0.000165	0.000179	0.000194	0.000205	0.000217
in ethanol	0.000347	0.000389	0.000461	0.000543	0.000618	0.000685	0.000768	0.000845	0.000935
in ethyl acetate	0.000101	0.000136	0.000186	0.000222	0.000271	0.000323	0.000362	0.000402	0.000431
in isobutanol	0.000288	0.000309	0.000354	0.000415	0.000464	0.000527	0.000587	0.000635	0.000707
in methanol	0.000974	0.00112	0.00132	0.00149	0.00176	0.00206	0.00243	0.00281	0.00318
in methyl acetate	0.000141	0.000167	0.000201	0.000245	0.000277	0.000315	0.000351	0.000401	0.000445
in n-butanol	8.9e-05	0.000102	0.000144	0.000193	0.000246	0.000314	0.000372	0.000439	0.000516
in n-propanol	0.000371	0.000405	0.000434	0.000471	0.000498	0.00053	0.000564	0.000594	0.000637
in sec-butanol	0.000347	0.000395	0.000452	0.000501	0.000554	0.000605	0.000661	0.000705	0.000757
in water	0.00214	0.00233	0.00265	0.00297	0.00358	0.0043	0.00492	0.00587	0.00767

Source: BigSolDB 2.1
